Values after ≈ are worked out from the molar mass of the structure shown.

Here are results for one compound from US4278671A, “7-[2-(2-Aminothiazol-4-yl)-2-(syn)-methoxyiminoacetamido] cephalosporins” (Takeda Chemical Industries, Ltd., priority 1976, dated 1981).

The subject of one test is Proteus rettgeri GN 4733. Put plainly: minimal inhibitory concentration against P. rettgeri GN 4733. The note with it: Providencia rettgeri, GN4733; P. rettgeri GN 4733; read-out: minimal inhibitory concentration. Format: cell-based.
In test [1] the test system is Proteus vulgaris IFO 3988. Put plainly: minimal inhibitory concentration against P. vulgaris IFO 3988. Type of test: cell-based. The note with it: Proteus vulgaris, IFO3988; P. vulgaris IFO 3988; read-out: minimal inhibitory concentration.
Test [2] concerns Citrobacter freundii GN 99. In words: minimal inhibitory concentration against Cit. freundii GN 99. The note with it: Citrobacter freundii, GN99; Cit. freundii GN 99; read-out: minimal inhibitory concentration. Type of test: cell-based.
Test [3] has as its system Citrobacter freundii GN 1706. In words: minimal inhibitory concentration against Cit. freundii GN 1706. Type of test: cell-based. The note with it: Citrobacter freundii, GN1706; Cit. freundii GN 1706; read-out: minimal inhibitory concentration.
The subject of a further test is E. coli T-7. Put plainly: minimal inhibitory concentration against E. coli T-7. Type of test: cell-based. The note with it: Escherichia coli, T7.
The test system of the next test is E. coli NIHJ. Put plainly: minimal inhibitory concentration against E. coli NIHJ. Format: cell-based. The note with it: Escherichia coli.
Another test relates to E. coli 0-111. Put plainly: minimal inhibitory concentration against E. coli 0-111. Type of test: cell-based, Escherichia coli. The note with it: Escherichia coli, 0111; E. coli 0-111; read-out: minimal inhibitory concentration.
In test [4] the test system is Proteus morganii IFO 3168. In words: minimal inhibitory concentration against P. morganii IFO 3168. Type of test: cell-based. The note with it: Morganella morganii, IFO3168; P. morganii IFO 3168; read-out: minimal inhibitory concentration.
The test system of a further test is P. vulgaris GN 4413. In words: minimal inhibitory concentration against P. vulgaris GN 4413. Type of test: cell-based. The note with it: Proteus vulgaris, GN4413.
The next test has as its system Serratia TN 0024. In words: minimal inhibitory concentration against Serratia TN 0024. Format: cell-based. The note with it: TN0024; Serratia TN 0024; read-out: minimal inhibitory concentration.
Test [5] concerns Klebsiella pneumoniae GN 3835. Put plainly: minimal inhibitory concentration against K. pneumoniae GN 3835. Type of test: cell-based. The note with it: Klebsiella pneumoniae, GN3835; K. pneumoniae GN 3835; read-out: minimal inhibitory concentration.
Test [6] has as its system Proteus mirabilis GN 4359. In words: minimal inhibitory concentration against P. mirabilis GN 4359. Format: cell-based. The note with it: Proteus mirabilis, GN4359; P. mirabilis GN 4359; read-out: minimal inhibitory concentration.
Another test concerns P. rettgeri 8(TN0336). In words: minimal inhibitory concentration against P. rettgeri 8 (TN0336). Type of test: cell-based, Proteus rettgeri. The note with it: Providencia rettgeri; P. rettgeri 8(TN0336); read-out: minimal inhibitory concentration.
In test [7] the test system is Serratia marcescens IFO 12648. In words: minimal inhibitory concentration against Serr. marcescens IFO 12648. Format: cell-based. The note with it: Serratia marcescens, IFO12648; Serr. marcescens IFO 12648; read-out: minimal inhibitory concentration.
In test [8] the test system is Enterobacter cloacae IFO 12937. Put plainly: minimal inhibitory concentration against Ent. cloacae IFO 12937. The note with it: Enterobacter cloacae; Ent. cloacae IFO12937; read-out: minimum inhibitory concentration. Type of test: cell-based.
Another test relates to Klebsiella pneumoniae DT. In words: minimal inhibitory concentration against K. pneumoniae DT. The note with it: Klebsiella pneumoniae; K. pneumoniae DT; read-out: minimal inhibitory concentration. Type of test: cell-based.

On to `CO/N=C(\C(=O)NC1C(=O)N2C(C(=O)O)=C(CSc3nnnn3CCN(C)C)CSC12)c1csc(N)n1` (stereo not drawn) [(e), 7-[2-(2-Aminothiazol-4-yl)-2-(syn)-methoxyiminoacetamido]-3-[1-(2-N,N-dimethylaminoethyl)-1,2,3,4-tetrazol-5-yl]thiomethyl-3-cephem-4-carboxylic acid betaine], for which the MIC was determined as 0.78 µg/mL (≈ 1.37 µM) in the test on Proteus rettgeri GN 4733; 0.2 µg/mL (≈ 0.352 µM) in test [1]; 0.2 µg/mL (≈ 0.352 µM) in test [2]; 0.78 µg/mL (≈ 1.37 µM) in test [3]; 1.56 µg/mL (≈ 2.74 µM) against E. coli T-7; 0.2 µg/mL (≈ 0.352 µM) with E. coli NIHJ. The MIC in the test on E. coli 0-111 was 0.024 µg/mL (≈ 0.0422 µM); in [4], 0.2 µg/mL (≈ 0.352 µM); with P. vulgaris GN 4413, 1.56 µg/mL (≈ 2.74 µM); with Serratia TN 0024, 0.78 µg/mL (≈ 1.37 µM); in test [5], 0.2 µg/mL (≈ 0.352 µM); in [6], 0.39 µg/mL (≈ 0.686 µM). In addition, the MIC in the test on P. rettgeri 8(TN0336) was 0.024 µg/mL (≈ 0.0422 µM); in test [7], 1.56 µg/mL (≈ 2.74 µM); in test [8], 6.25 µg/mL (≈ 11 µM); with Klebsiella pneumoniae DT it was 0.1 µg/mL (≈ 0.176 µM).
